{
  "source": "patent US9920032B2",
  "about": "“Heterocyclic compounds useful as pim kinase inhibitors” (Incyte Corporation, priority 2015, dated 2018)",
  "assay_type_in_all_cases": "biochemical",
  "key": {"Pim-2": {"target": "Pim-2 (Homo sapiens (Human), UniProt Q9P1W9)", "sequence (Q9P1W9 whole entry)": "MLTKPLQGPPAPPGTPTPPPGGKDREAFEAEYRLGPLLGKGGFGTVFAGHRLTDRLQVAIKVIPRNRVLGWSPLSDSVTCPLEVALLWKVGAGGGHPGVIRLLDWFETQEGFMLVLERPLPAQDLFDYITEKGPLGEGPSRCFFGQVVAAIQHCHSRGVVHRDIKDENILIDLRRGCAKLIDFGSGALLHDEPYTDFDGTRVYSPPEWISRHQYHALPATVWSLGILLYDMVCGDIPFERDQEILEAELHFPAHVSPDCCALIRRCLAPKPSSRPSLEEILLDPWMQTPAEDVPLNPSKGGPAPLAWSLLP", "test": "Pim-2 kinase assay", "conditions": "1 mM ATP; read-out: PIM2 IC50", "summary_of_the_method": "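TR-FRET assay with 1 nM enzyme, 0.05 μM fluorescein-CREBtide and 1 mM ATP in Tris pH 7.5 buffer with MgCl2, DTT, BSA and Tween-20, run 2 h at 25° C. Stopped with EDTA and Tb-labelled anti-CREB pSer133 antibody, then read after 30 min at room temperature.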"}, "Pim-3": {"target": "Pim-3 (Homo sapiens (Human), UniProt Q86V86)", "test": "Pim-3 kinase assay", "conditions": "1 mM ATP; read-out: PIM3 IC50", "summary_of_the_method": "(§1)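 Enzyme at 2.5 pM (Pim-1) or 1.25 pM (Pim-3) reacted 1 h at 25° C with 1 mM ATP and 0.05 μM biotinylated BAD peptide, pH 7.5. Phospho-Ser112 BAD detected by antibody/Protein-A acceptor and streptavidin donor bead proximity signal after EDTA quench and 1 h dark incubation.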"}, "Pim-1": {"target": "Pim-1 (Homo sapiens (Human), UniProt P11309)", "sequence (P11309 whole entry)": "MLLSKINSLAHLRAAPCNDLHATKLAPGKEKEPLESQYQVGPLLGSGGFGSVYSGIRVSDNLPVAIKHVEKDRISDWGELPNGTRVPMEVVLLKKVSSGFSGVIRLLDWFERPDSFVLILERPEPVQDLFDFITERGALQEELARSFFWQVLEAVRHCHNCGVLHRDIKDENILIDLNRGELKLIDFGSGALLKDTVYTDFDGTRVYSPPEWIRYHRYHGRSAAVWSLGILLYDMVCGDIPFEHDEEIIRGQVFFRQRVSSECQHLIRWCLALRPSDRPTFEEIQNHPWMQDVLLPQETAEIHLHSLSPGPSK", "test": "Pim-1 kinase assay", "conditions": "1 mM ATP; read-out: PIM1 IC50", "summary_of_the_method": "as §1"}},
  "data": [
    {"compound": "C[C@@H]1C[C@H](N)C[C@H](c2ccncc2NC(=O)c2ccc(F)c3cc(N4C5CCC4CC5)cnc23)C1", "note": "[Example 136, N-(4-((1R,3S,5S)-3-Amino-5-methylcyclohexyl)pyridin-3-yl)-3-(7-azabicyclo[2.2.1]heptan-7-yl)-5-fluoroquinoline-8-carboxamide]", "values": [
      {"measurement": "IC50", "setting": "Pim-2", "result": "≤ 100", "unit": "nM"},
      {"measurement": "IC50", "setting": "Pim-3", "result": "≤ 10", "unit": "nM"},
      {"measurement": "IC50", "setting": "Pim-1", "result": "≤ 10", "unit": "nM"}
    ]},
    {"compound": "C[C@@H]1C[C@H](N)C[C@H](c2ccncc2NC(=O)c2ccc(F)c3cc(N4CCC[C@H](C)C4)cnc23)C1", "note": "[Example 113, N-(4-((1R,3S,5S)-3-Amino-5-methylcyclohexyl)pyridin-3-yl)-5-fluoro-3-((S)-3-methylpiperidin-1-yl)quinoline-8-carboxamide]", "values": [
      {"measurement": "IC50", "setting": "Pim-2", "result": "≤ 100", "unit": "nM"},
      {"measurement": "IC50", "setting": "Pim-3", "result": "≤ 10", "unit": "nM"},
      {"measurement": "IC50", "setting": "Pim-1", "result": "≤ 10", "unit": "nM"}
    ]},
    {"compound": "C[C@@H]1C[C@H](N)C[C@H](c2ccncc2NC(=O)c2ccc(F)c3cc(-c4c(F)cccc4C#N)cnc23)C1", "note": "[Example 15, N-{4-[(1R,3S,5S)-3-Amino-5-methylcyclohexyl]pyridin-3-yl}-3-(2-cyano-6-fluorophenyl)-5-fluoroquinoline-8-carboxamide]", "values": [
      {"measurement": "IC50", "setting": "Pim-2", "result": "≤ 100", "unit": "nM"},
      {"measurement": "IC50", "setting": "Pim-3", "result": "≤ 10", "unit": "nM"},
      {"measurement": "IC50", "setting": "Pim-1", "result": "≤ 10", "unit": "nM"}
    ]},
    {"compound": "C[C@@H]1C[C@H](N)C[C@H](c2ccncc2NC(=O)c2ccc(F)c3cc(N(C)c4ccncc4F)cnc23)C1", "note": "[Example 145, N-(4-((1R,3S,5S)-3-Amino-5-methylcyclohexyl)pyridin-3-yl)-5-fluoro-3-((3-fluoropyridin-4-yl)(methyl)amino)quinoline-8-carboxamide]", "values": [
      {"measurement": "IC50", "setting": "Pim-2", "result": "≤ 100", "unit": "nM"},
      {"measurement": "IC50", "setting": "Pim-3", "result": "≤ 10", "unit": "nM"},
      {"measurement": "IC50", "setting": "Pim-1", "result": "≤ 10", "unit": "nM"}
    ]},
    {"compound": "C[C@@H]1C[C@H](N)C[C@H](c2ccncc2NC(=O)c2ccc(F)c3cc(N4CCc5nn(C)cc5C4)cnc23)C1", "note": "[Example 119, N-(4-((1R,3S,5S)-3-Amino-5-methylcyclohexyl)pyridin-3-yl)-5-fluoro-3-(2-methyl-6,7-dihydro-2H-pyrazolo[4,3-c]pyridin-5(4H)-yl)quinoline-8-carboxamide]", "values": [
      {"measurement": "IC50", "setting": "Pim-2", "result": "≤ 100", "unit": "nM"},
      {"measurement": "IC50", "setting": "Pim-3", "result": "≤ 10", "unit": "nM"},
      {"measurement": "IC50", "setting": "Pim-1", "result": "≤ 10", "unit": "nM"}
    ]},
    {"compound": "C[C@@H]1C[C@H](N)C[C@H](c2ccncc2NC(=O)c2ccc(F)c3cc(N4CCN(C)C(=O)[C@@H]4C)cnc23)C1", "note": "[Example 112, N-(4-((1R,3S,5S)-3-Amino-5-methylcyclohexyl)pyridin-3-yl)-3-((5)-2,4-dimethyl-3-oxopiperazin-1-yl)-5-fluoroquinoline-8-carboxamide]", "values": [
      {"measurement": "IC50", "setting": "Pim-2", "result": "≤ 100", "unit": "nM"},
      {"measurement": "IC50", "setting": "Pim-3", "result": "≤ 10", "unit": "nM"},
      {"measurement": "IC50", "setting": "Pim-1", "result": "≤ 10", "unit": "nM"}
    ]},
    {"compound": "C[C@@H]1C[C@H](N)C[C@H](c2ccncc2NC(=O)c2cccc3cc(N4CCC[C@@H]4C)cnc23)C1", "note": "[Example 69, N-(4-((1R,3S,5S)-3-Amino-5-methylcyclohexyl)pyridin-3-yl)-3-((S)-2-methylpyrrolidin-1-yl)quinoline-8-carboxamide]", "values": [
      {"measurement": "IC50", "setting": "Pim-2", "result": "≤ 100", "unit": "nM"},
      {"measurement": "IC50", "setting": "Pim-3", "result": "≤ 10", "unit": "nM"},
      {"measurement": "IC50", "setting": "Pim-1", "result": "≤ 10", "unit": "nM"}
    ]},
    {"compound": "C[C@@H]1C[C@H](N)C[C@H](c2ccncc2NC(=O)c2ccc(F)c3cc(N4CC[C@@H]4C)cnc23)C1", "note": "[Example 166, N-(4-((1R,3S,5S)-3-Amino-5-methylcyclohexyl)pyridin-3-yl)-5-fluoro-3-((S)-2-methylazetidin-1-yl)quinoline-8-carboxamide]", "values": [
      {"measurement": "IC50", "setting": "Pim-2", "result": "≤ 100", "unit": "nM"},
      {"measurement": "IC50", "setting": "Pim-3", "result": "≤ 10", "unit": "nM"},
      {"measurement": "IC50", "setting": "Pim-1", "result": "≤ 10", "unit": "nM"}
    ]},
    {"compound": "C[C@@H]1C[C@H](N)C[C@H](c2ccncc2NC(=O)c2ccc(F)c3cc(N(C)c4ccc5nccn5c4)cnc23)C1", "note": "[Example 153]", "values": [
      {"measurement": "IC50", "setting": "Pim-2", "result": "100 to 1000", "unit": "nM"},
      {"measurement": "IC50", "setting": "Pim-3", "result": "≤ 10", "unit": "nM"},
      {"measurement": "IC50", "setting": "Pim-1", "result": "≤ 10", "unit": "nM"}
    ]},
    {"compound": "C[C@@H]1C[C@H](N)C[C@H](c2ccncc2NC(=O)c2ccc(F)c3cc(N4CCCc5ccccc54)cnc23)C1", "note": "[Example 130, N-(4-((1R,3S,5S)-3-Amino-5-methylcyclohexyl)pyridin-3-yl)-5′-fluoro-3,4-dihydro-2H-1,3′-biquinoline-8′-carboxamide]", "values": [
      {"measurement": "IC50", "setting": "Pim-2", "result": "100 to 1000", "unit": "nM"},
      {"measurement": "IC50", "setting": "Pim-3", "result": "≤ 10", "unit": "nM"},
      {"measurement": "IC50", "setting": "Pim-1", "result": "≤ 10", "unit": "nM"}
    ]},
    {"compound": "COC[C@H]1CCCN1c1cnc2c(C(=O)Nc3cnccc3[C@@H]3C[C@H](C)C[C@H](N)C3)ccc(F)c2c1", "note": "[Example 47, N-(4-((1R,3S,5S)-3-Amino-5-methylcyclohexyl)pyridin-3-yl)-5-fluoro-3-OR)-2-(methoxymethyl)pyrrolidin-1-yl)quinoline-8-carboxamide]", "values": [
      {"measurement": "IC50", "setting": "Pim-2", "result": "≤ 100", "unit": "nM"},
      {"measurement": "IC50", "setting": "Pim-3", "result": "≤ 10", "unit": "nM"},
      {"measurement": "IC50", "setting": "Pim-1", "result": "≤ 10", "unit": "nM"}
    ]},
    {"compound": "COCCN(C)c1cnc2c(C(=O)Nc3cnccc3[C@@H]3C[C@H](C)C[C@H](N)C3)ccc(F)c2c1", "note": "[Example 51, N-(4-((1R,3S,5S)-3-Amino-5-methylcyclohexyl)pyridin-3-yl)-5-fluoro-3-((2-methoxyethyl)(methyl)amino)quinoline-8-carboxamide]", "values": [
      {"measurement": "IC50", "setting": "Pim-2", "result": "100 to 1000", "unit": "nM"},
      {"measurement": "IC50", "setting": "Pim-3", "result": "≤ 10", "unit": "nM"},
      {"measurement": "IC50", "setting": "Pim-1", "result": "≤ 10", "unit": "nM"}
    ]},
    {"compound": "CO[C@@H]1CCN(c2cnc3c(C(=O)Nc4cnccc4[C@@H]4C[C@H](C)C[C@H](N)C4)ccc(F)c3c2)[C@H](C)C1", "note": "[Example 161, N-(4-((1R,3S,5S)-3-Amino-5-methylcyclohexyl)pyridin-3-yl)-5-fluoro-3-((2R,4R)-4-methoxy-2-methylpiperidin-1-yl)quinoline-8-carboxamide]", "values": [
      {"measurement": "IC50", "setting": "Pim-2", "result": "≤ 100", "unit": "nM"},
      {"measurement": "IC50", "setting": "Pim-3", "result": "≤ 10", "unit": "nM"},
      {"measurement": "IC50", "setting": "Pim-1", "result": "≤ 10", "unit": "nM"}
    ]}
  ]
}
